Test results reported in paper PMC12677607, “Identification of a Pair of Linear or Cyclic Naturally Inspired Bifunctional Lipopeptide Antibiotics That Overcome Antimicrobial Resistance” (Advanced Science, 2025).
≈ marks a conversion by molar mass, not a printed value. Bridge positions count the residues as written; N and C are the ends. Square brackets hold non-standard residues; d marks the D form. Peptide text beside a SMILES is read from it. * marks the point of attachment. Myristoyl = CCCCCCCCCCCCCC(=O)*; dOrn = NCCC[C@@H](N)C(=O)O; Orn = NCCC[C@H](N)C(=O)O

Assays:
[1] = tested on: Candida albicans ATCC 10231; test: MIC assay (YPD broth); format: cell-based
Procedure: (§1) All MIC assays were performed two independent times (n = 2) in 96‐well plates using a broth micro‐dilution method. The lowest concentration of that inhibited visible microbial growth was recorded as the MIC value.
(§2) For fungal strains, overnight cultures were diluted 2000‐fold in YPD broth. 100 µL of diluted cells was mixed with 100 µL of YPD broth containing each peptide ranging from […] 64 to 0.125 µg mL^−1 at 2‐fold serial dilutions.

[2] = tested on: Candida albicans ATCC 64550; format: cell-based; details: ATCC 64550, 16 h
Procedure: as §1, §2

[3] = tested on: Acinetobacter baumannii 1104008; test: microbe, parasite or virus in culture; format: cell-based
Procedure: as §1
(§3) For most of bacterial strains, overnight cultures were diluted 5000‐fold in LB broth. For E. faecium and S. aureus, overnight cultures were diluted 1000‐ and 10000‐fold in LB broth, respectively. 100 µL of diluted cells was mixed with 100 µL of LB broth containing each peptide ranging from 64 to 0.125 µg mL^−1 at 2‐fold serial dilutions.

[4] = tested on: Enterococcus faecalis 26; test: microbe, parasite or virus in culture; format: cell-based; details: 26, 16 h
Procedure: as §1, §3

[5] = tested on: Klebsiella pneumoniae CRKP 5452; test: microbe, parasite or virus in culture; format: cell-based
Procedure: as §1, §3

[6] = tested on: Acinetobacter baumannii ATCC 19606; test: microbe, parasite or virus in culture; format: cell-based; details: ATCC 19606, 16 h
Procedure: as §1, §3

[7] = tested on: Klebsiella pneumoniae NCTC 5056; test: microbe, parasite or virus in culture; format: cell-based; details: NCTC 5056, 16 h
Procedure: as §1, §3

[8] = tested on: Streptococcus mutans ATCC 25175; test: microbe, parasite or virus in culture; format: cell-based; details: ATCC 25175, 16 h
Procedure: as §1, §3

[9] = tested on: Streptococcus pyogenes ATCC 19615; test: microbe, parasite or virus in culture; format: cell-based
Procedure: as §1, §3

[10] = tested on: Vibrio alginolyticus XSBZ14; test: microbe, parasite or virus in culture; format: cell-based; details: 16 h
Procedure: as §1, §3

[11] = tested on: Acinetobacter baumannii ATCC 17978; test: microbe, parasite or virus in culture; format: cell-based; details: ATCC 17978, 16 h
Procedure: as §1, §3

[12] = tested on: Staphylococcus aureus USA300; test: microbe, parasite or virus in culture; format: cell-based; details: for antibacterial activity (MIC) S. aureus USA300: Figure S127b, wild type
Procedure: as §1, §3

[13] = tested on: Pseudomonas aeruginosa PAO1; test: microbe, parasite or virus in culture; format: cell-based; details: PAO1, 16 h
Procedure: as §1, §3

[14] = tested on: Enterococcus faecalis 28; test: microbe, parasite or virus in culture; format: cell-based; details: 28, 16 h
Procedure: as §1, §3

[15] = tested on: Klebsiella pneumoniae CRKP HS11286; test: microbe, parasite or virus in culture; format: cell-based; details: CRKP HS11286, 16 h
Procedure: as §1, §3

[16] = tested on: Enterococcus faecium 35682; test: microbe, parasite or virus in culture; format: cell-based; details: 35682, 16 h
Procedure: as §1, §3

[17] = tested on: Pseudomonas aeruginosa ATCC 9027; test: microbe, parasite or virus in culture; format: cell-based; details: ATCC 9027, 16 h
Procedure: as §1, §3

[18] = tested on: Salmonella typhimurium LXX; test: microbe, parasite or virus in culture; format: cell-based; details: murium LXX, 16 h
Procedure: as §1, §3

[19] = tested on: Staphylococcus aureus ATCC 25923; test: microbe, parasite or virus in culture; format: cell-based; details: ATCC 25923, 16 h
Procedure: as §1, §3

[20] = tested on: Salmonella enterica ATCC 14028; test: microbe, parasite or virus in culture; format: cell-based; details: ATCC 14028, 16 h
Procedure: as §1, §3

[21] = tested on: Enterococcus faecalis ATCC 29212; test: microbe, parasite or virus in culture; format: cell-based; details: ATCC 29212, 16 h
Procedure: as §1, §3

[22] = tested on: Klebsiella pneumoniae ATCC 13883; test: microbe, parasite or virus in culture; format: cell-based; details: ATCC 13883, 16 h
Procedure: as §1, §3

[23] = tested on: Staphylococcus aureus ATCC 6538; test: microbe, parasite or virus in culture; format: cell-based; details: ATCC 6538, 16 h
Procedure: as §1, §3

[24] = tested on: Staphylococcus aureus Newman; test: microbe, parasite or virus in culture; format: cell-based; details: Newman, 16 h
Procedure: as §1, §3

[25] = tested on: Acinetobacter baumannii P53; test: microbe, parasite or virus in culture; format: cell-based; details: Table S11; LB broth, 37 °C, 16 h, n = 2
Procedure: as §1, §3

[26] = tested on: Shigella Castellani LXX; test: MIC assay (broth micro-dilution); format: cell-based; details: Table S11; LB broth, 37 °C, 16 h, n = 2
Procedure: as §1, §3

[27] = tested on: Escherichia coli DH5α; test: MIC assay (broth micro-dilution); format: cell-based; details: Table S11; LB broth, 37 °C, 16 h, n = 2
Procedure: as §1, §3

[28] = tested on: HeLa cells; test: Cytotoxicity assay (CCK-8); format: cell-based, human; details: 48 h
Procedure: The cytotoxicity of each synAQU peptide was assessed using a cell counting kit‐8 (CCK‐8) assay. HeLa cells were first seeded in a 96‐well flat‐bottom microtiter plate with a density of ∼5000 cells per well and incubated in the DMEM medium supplemented with 10% FBS at 37 °C with 5% CO2 for 24 h. […] All cytotoxicity experiments were done in triplicate (n = 3) and repeated two independent times (n = 2).

[29] = tested on: four Gram-negative bacteria, four Gram-positive bacteria, and one fungal pathogen; test: Initial antimicrobial assay of 17 synAQUs; format: cell-based; details: MIC up to 64 µg mL^−1, Figure 3a
Procedure: as §1, §3, §2

[30] = tested on: S. aureus USA300 MprFT345A; test: MIC against daptomycin-resistant mutant; format: cell-based; details: for antibacterial activity (MIC) S. aureus USA300 MprFT345A: Figure S127b, daptomycin-resistant mutant
Procedure: as §1, §3
(§4) Overnight cultures S. aureus USA300 were diluted 10000‐fold in LB broth, and 100 µL of dilute cell suspension was added to 96‐well plates containing 100 µL serially diluted aquicidine C4, telomycin, and daptomycin (with 15 mM CaCl2). Overnight cultures K. pneumoniae CRKP5452 were diluted 5000‐fold in LB broth, and 100 µL of dilute cell suspension was added to 96‐well plates containing 100 µL serially diluted aquicidine L and colistin. After an incubation of 24 h at 37 °C, the MIC value was determined. […] The MIC value was recorded as described above, and the process was repeated daily for 21 days. Experiments were performed two independent times (n = 2).
(§5) Single‐nucleotide polymorphisms (SNPs) for telomycin‐, daptomycin‐ or colistin‐resistant mutants were identified using SNIPPY by mapping DNBSEQ‐seq reads to the reference genome of S. aureus USA300 or K. pneumoniae CRKP5452.

[31] = tested on: S. aureus USA300 Cls2A338stop; test: MIC against telomycin-resistant mutant; format: cell-based; details: for antibacterial activity (MIC) S. aureus USA300 Cls2A338stop: Figure S127b, telomycin-resistant mutant
Procedure: as §1, §3, §4, §5

[32] = Table S11, LB broth, 37 °C, 16 h, n = 2

CCCCCCCCCCCCCC(=O)N[C@@H](CCCN)C(=O)N[C@H](Cc1ccc(O)cc1)C(=O)N[C@@H](C(=O)N[C@H]1C(=O)N[C@H](CCCN)C(=O)N[C@@H](CCCN)C(=O)N[C@H](C(C)C)C(=O)N[C@@H]([C@@H](C)CC)C(=O)N[C@@H](CC(C)C)C(=O)N[C@H](CCCN)C(=O)N[C@@H]([C@@H](C)O)C(=O)N[C@@H](C)C(=O)O[C@H]1C)C(C)C [synAQU6-C4] (Myristoyl-[Orn][dY][dV][dT][dOrn][Orn][dV]IL[dOrn]TA; ester 4-C)
MIC Candida albicans ATCC 10231 ([1]; Table S11, YPD broth, 30 °C, 16 h, n = 2): > 64 µg/mL
MIC Candida albicans ATCC 64550 [2]: > 64 µg/mL
MIC Acinetobacter baumannii 1104008 [3, 32]: 32 µg/mL (≈ 20.9 µM)
MIC Enterococcus faecalis 26 [4]: 2 µg/mL (≈ 1.31 µM)
MIC Klebsiella pneumoniae CRKP 5452 [5, 32]: 16 µg/mL (≈ 10.5 µM)
MIC Acinetobacter baumannii ATCC 19606 [6]: > 64 µg/mL
MIC Klebsiella pneumoniae NCTC 5056 [7]: 32 µg/mL (≈ 20.9 µM)
MIC Streptococcus mutans ATCC 25175 [8]: 4 µg/mL (≈ 2.62 µM)
MIC Streptococcus pyogenes ATCC 19615 [9, 32]: 4 µg/mL (≈ 2.62 µM)
MIC Vibrio alginolyticus XSBZ14 [10]: > 64 µg/mL
MIC Acinetobacter baumannii ATCC 17978 [11]: 32 µg/mL (≈ 20.9 µM)
MIC Staphylococcus aureus USA300 ([12]; USA300, 16 h): > 64 µg/mL
MIC Pseudomonas aeruginosa PAO1 [13]: 16 µg/mL (≈ 10.5 µM)
MIC Enterococcus faecalis 28 [14]: > 64 µg/mL
MIC Klebsiella pneumoniae CRKP HS11286 [15]: 32 µg/mL (≈ 20.9 µM)
MIC Enterococcus faecium 35682 [16]: 32 µg/mL (≈ 20.9 µM)
MIC Pseudomonas aeruginosa ATCC 9027 [17]: > 64 µg/mL
MIC Salmonella typhimurium LXX [18]: 32 µg/mL (≈ 20.9 µM)
MIC Staphylococcus aureus ATCC 25923 [19]: 16 µg/mL (≈ 10.5 µM)
MIC Salmonella enterica ATCC 14028 [20]: 32 µg/mL (≈ 20.9 µM)
MIC Enterococcus faecalis ATCC 29212 [21]: > 64 µg/mL
MIC Klebsiella pneumoniae ATCC 13883 [22]: 32 µg/mL (≈ 20.9 µM)
MIC Staphylococcus aureus ATCC 6538 [23]: 16 µg/mL (≈ 10.5 µM)
MIC Staphylococcus aureus Newman [24]: > 64 µg/mL
MIC Acinetobacter baumannii P53 [25]: > 64 µg/mL
MIC Shigella Castellani LXX [26]: > 64 µg/mL
MIC Escherichia coli DH5α [27]: 8 µg/mL (≈ 5.24 µM)

CCCCCCCCCCCCCC(=O)N[C@@H](CCCCN)C(=O)N[C@@H](CCCNC(=N)N)C(=O)N[C@@H](CC(C)C)C(=O)N[C@@H](C)C(=O)N[C@@H](CC(C)C)C(=O)N[C@@H]1C(=O)N[C@@H](CC(=O)O)C(=O)N[C@@H](CC(=O)O)C(=O)N[C@@H](C(C)C)C(=O)N[C@@H](CC(N)=O)C(=O)N[C@@H](C(C)C)C(=O)N[C@H](Cc2ccccc2)C(=O)N[C@@H](CC(N)=O)C(=O)O[C@@H]1C [synAQU7-C6] (Myristoyl-KRLALTDDVNV[dF]N; ester 6-C)
MIC (μg/mL) Hela [28]: > 64 µg/mL
MIC (μg/mL) C. albicans ATCC 10231 ([1]; ATCC 10231, 16 h): > 64 µg/mL
activity against all nine tested strains [29]: not active
MIC (μg/mL) A. baumannii 1104008 ([3]; 1104008, 16 h): > 64 µg/mL
MIC (μg/mL) K. pneumoniae CRKP 5452 ([5]; CRKP 5452, 16 h): > 64 µg/mL
MIC (μg/mL) S. pyogenes ATCC 19615 ([9]; ATCC 19615, 16 h): > 64 µg/mL
MIC (μg/mL) S. aureus USA300 ([12]; USA300, 16 h): > 64 µg/mL

Daptomycin
antibacterial activity (MIC) S. aureus USA300 [12]: 1 µg/mL
antibacterial activity (MIC) S. aureus USA300 MprFT345A [30]: 16 µg/mL
increase in MIC against resistant mutant compared to wild type ([30]; S. aureus USA300 MprF^T345A vs wild type): 16 fold
antibacterial activity (MIC) S. aureus USA300 Cls2A338stop [31]: 1 µg/mL

Telomycin
antibacterial activity (MIC) S. aureus USA300 [12]: 4 µg/mL
antibacterial activity (MIC) S. aureus USA300 MprFT345A [30]: 4 µg/mL
antibacterial activity (MIC) S. aureus USA300 Cls2A338stop [31]: 128 µg/mL
increase in MIC against resistant mutant compared to wild type ([31]; S. aureus USA300 Cls2^A338stop vs wild type): 32 fold
